What was measured:
[1] = target: Casein kinase 1 delta (CSKN1D) (Homo sapiens, UniProt P48730); assay: Casein kinase assay, CK1 delta; type: biochemical; details: recombinant CSKN1D 5 nM, ATP 10 μM
[2] = target: Casein kinase 1 epsilon (CSKN1E) (Homo sapiens, UniProt P49674); assay: Casein kinase assay, CK1 epsilon; type: biochemical; details: recombinant CSKN1E 30 nM, ATP 10 μM
Experimental: The recombinant protein Casein kinase 1 delta (CSKN1D) was added to the substrate solution in a concentration of 5 nM and gently mixed. Dilution series in of compounds of the present invention in DMSO were added to the reaction mixture, followed after 20 min by addition of a mixture of ATP and ^33P-ATP (specific activity 0.01 μCi/μl final) to a final concentration of 10 μM. Reactions were carried out at 25° C. for 120 min, followed by spotting the reactions onto P81 ion exchange filter paper. Unbound phosphate was removed by washing of the filters in 0.75% phosphoric acid. […] IC50 values and curve fits were obtained using the program Prism® (Graph Pad Software).
The above assay was also used to determine the inhibitory capacity of the compounds of the present invention on Casein Kinase 1 epsilon, wherein instead of CSKN1D, recombinant protein Casein kinase 1 epsilon (CSKN1E) was added to the substrate solution in a concentration of 30 nM and gently mixed.

Casein kinase 1 delta (CSKN1D), sequence (P48730 whole entry): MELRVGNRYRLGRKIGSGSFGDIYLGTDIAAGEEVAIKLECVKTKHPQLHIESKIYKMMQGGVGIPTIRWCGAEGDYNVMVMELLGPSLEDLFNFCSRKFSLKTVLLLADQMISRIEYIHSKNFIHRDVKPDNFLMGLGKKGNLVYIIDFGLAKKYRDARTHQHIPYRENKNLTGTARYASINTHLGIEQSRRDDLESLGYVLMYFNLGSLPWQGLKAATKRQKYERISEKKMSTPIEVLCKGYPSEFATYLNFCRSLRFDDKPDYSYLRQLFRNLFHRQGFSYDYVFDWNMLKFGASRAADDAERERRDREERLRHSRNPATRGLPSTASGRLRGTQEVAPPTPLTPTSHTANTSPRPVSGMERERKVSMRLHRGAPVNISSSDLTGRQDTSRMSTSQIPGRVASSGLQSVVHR
Casein kinase 1 epsilon (CSKN1E), sequence (P49674 whole entry): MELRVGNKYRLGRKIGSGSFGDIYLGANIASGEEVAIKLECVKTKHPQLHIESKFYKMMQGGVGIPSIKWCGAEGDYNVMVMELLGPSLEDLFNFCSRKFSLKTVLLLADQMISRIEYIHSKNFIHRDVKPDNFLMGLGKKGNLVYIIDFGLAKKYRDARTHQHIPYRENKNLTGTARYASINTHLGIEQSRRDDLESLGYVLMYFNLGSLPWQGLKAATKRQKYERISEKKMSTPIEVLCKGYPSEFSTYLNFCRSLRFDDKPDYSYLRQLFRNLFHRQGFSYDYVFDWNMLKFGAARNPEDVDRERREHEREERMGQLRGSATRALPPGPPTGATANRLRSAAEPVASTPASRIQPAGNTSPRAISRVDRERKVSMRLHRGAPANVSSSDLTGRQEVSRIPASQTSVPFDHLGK

## O=C(Nc1nc2cc3c(cc2[nH]1)OC(F)(F)O3)c1csc(-c2ccccc2)n1 [Compound 4, N-(2,2-difluoro-5H-[1,3]dioxolo[4′,5′:4,5]benzo[1,2-d]imidazol-6-yl)-2-phenylthiazole-4-carboxamide]
[1]
  IC50: 200 to 1000 nM
[2]
  IC50: 200 to 1000 nM

## O=C(Nc1nc2cc3c(cc2[nH]1)OC(F)(F)O3)c1csc(-c2ccc(C(F)(F)F)cc2)n1 [Compound 5, N-(2,2-difluoro-5H-[1,3]dioxolo[4′,5′:4,5]benzo[1,2-d]imidazol-6-yl)-2-(4-(trifluoromethyl)phenyl)thiazole-4-carboxamide]
[1]
  IC50: > 1000 nM
[2]
  IC50: > 1000 nM

## O=C(Nc1nc2cc3c(cc2[nH]1)OC(F)(F)O3)c1csc(-c2cccc(Cl)c2Cl)n1 [Compound 6, 2-(2,3-dichlorophenyl)-N-(2,2-difluoro-5H-[1,3]dioxolo[4′,5′:4,5]benzo[1,2-d]imidazol-6-yl)thiazole-4-carboxamide]
[1]
  IC50: > 1000 nM
[2]
  IC50: > 1000 nM

## O=C(Nc1nc(C(=O)Nc2nc3cc4c(cc3[nH]2)OC(F)(F)O4)cs1)c1ccc(Cl)cc1 [Compound 8, 2-(4-chlorobenzamido)-N-(2,2-difluoro-5H-[1,3]dioxolo[4′,5′:4,5]benzo[1,2-d]imidazol-6-yl)thiazole-4-carboxamide]
[1]
  IC50: 200 to 1000 nM
[2]
  IC50: 200 to 1000 nM

## O=C(Cc1cccc(Cl)c1)Nc1nc2cc3c(cc2[nH]1)OC(F)(F)O3 [Compound 8B, 2-(3-chlorophenyl)-N-(2,2-difluoro-5H-[1,3]dioxolo[4′,5′:4,5]benzo[1,2-d]imidazol-6-yl)acetamide]
[1]
  IC50: < 200 nM
[2]
  IC50: < 200 nM

## O=C(/C=C/c1ccccc1)Nc1nc(C(=O)Nc2nc3cc4c(cc3[nH]2)OC(F)(F)O4)co1 [Compound 9, 2-cinnamamido-N-(2,2-difluoro-5H-[1,3]dioxolo[4′,5′:4,5]benzo[1,2-d]imidazol-6-yl)oxazole-4-carboxamide]
[1]
  IC50: > 1000 nM
[2]
  IC50: > 1000 nM

## O=C(Nc1nc2cc3c(cc2[nH]1)OC(F)(F)O3)c1coc(NC(=O)c2ccco2)n1 [Compound 10, N-(2,2-difluoro-5H-[1,3]dioxolo[4′,5′:4,5]benzo[1,2-d]imidazol-6-yl)-2-(furan-2-carboxamido)oxazole-4-carboxamide]
[1]
  IC50: 200 to 1000 nM
[2]
  IC50: > 1000 nM

## O=C(Nc1nc2cc3c(cc2[nH]1)OC(F)(F)O3)c1csc(NC(=O)c2ccco2)n1 [Compound 11, N-(2,2-difluoro-5H-[1,3]dioxolo[4′,5′:4,5]benzo[1,2-d]imidazol-6-yl)-2-(furan-2-carboxamido)thiazole-4-carboxamide]
[1]
  IC50: < 200 nM
[2]
  IC50: < 200 nM

## CC(C)c1nc(-c2cccc(C(=O)Nc3nc4cc5c(cc4[nH]3)OC(F)(F)O5)c2)no1 [Compound 131, N-(2,2-difluoro-5H-[1,3]dioxolo[4′,5′:4,5]benzo[1,2-d]imidazol-6-yl)-3-(5-isopropyl-1,2,4-oxadiazol-3-yl)benzamide]
[1]
  IC50: < 200 nM

## CC(C)(C)c1nc(-c2cccc(C(=O)Nc3nc4cc5c(cc4[nH]3)OC(F)(F)O5)c2)no1 [Compound 132, 3-(5-(tert-butyl)-1,2,4-oxadiazol-3-yl)-N-(2,2-difluoro-5H-[1,3]dioxolo[4′,5′:4,5]benzo[1,2-d]imidazol-6-yl)benzamide]
[1]
  IC50: < 200 nM

## CCOC(=O)c1cc(C)n(-c2cccc(C(=O)Nc3nc4cc5c(cc4[nH]3)OC(F)(F)O5)c2)c1C [Compound 139, ethyl 1-(3-((2,2-difluoro-5H-[1,3]dioxolo[4′,5′:4,5]benzo[1,2-d]imidazol-6-yl)carbamoyl)phenyl)-2,5-dimethyl-1H-pyrrole-3-carboxylate]
[1]
  IC50: < 200 nM

## Cc1cc(C(=O)Nc2nc3cc4c(cc3[nH]2)OC(F)(F)O4)no1 [Compound 145, N-(2,2-difluoro-5H-[1,3]dioxolo[4′,5′:4,5]benzo[1,2-d]imidazol-6-yl)-5-methylisoxazole-3-carboxamide]
[1]
  IC50: > 1000 nM

## Cc1cc(C(=O)Nc2nc3cc4c(cc3[nH]2)OC(F)(F)O4)nn1C [Compound 146, N-(2,2-difluoro-5H-[1,3]dioxolo[4′,5′:4,5]benzo[1,2-d]imidazol-6-yl)-1,5-dimethyl-1H-pyrazole-3-carboxamide]
[1]
  IC50: > 1000 nM

Source: patent US20170240556A1, “BIFLUORODIOXALANE-AMINO-BENZIMIDAZOLE KINASE INHIBITORS FOR THE TREATMENT OF CANCER, AUTOIMMUNEINFLAMMATION AND CNS DISORDERS” (4SC DISCOVERY GMBH, priority 2012, published 2017)
